Key:
[1] = test system: CT26 colorectal cancer model; experiment: Study S010516: merestinib and anti-PD-L1 antibody combinations in CT26 syngeneic mouse tumor model; format: in vivo; set-up: key to Mean Tumor Volume: mm³; tumor volume v = l×w²×0.536; conditions: for Mean Tumor Volume: in mm³ (unit assumed)
Procedure: A syngeneic mouse tumor model is used to evaluate potential combination effect of merestinib and anti-PD-L1 antibody is the CT26 colorectal cancer model using the mouse colorectal cancer line CT26. This experiment is conducted in immune competent mice (Grosso and Jure-Kunkel, Cancer Immunity Vol. 13, p. 5, January 2013; Duraiswamy et al, Cancer Research, Jun. 15, 2013 73; 3591.). Anti-PD-L1 antibody surrogate (178G7, LSN3370181) (Eppihimer et al. Microcirculation 2002:9(2):133) is used in the mouse study.
Female BALB/c mice (18-20 gm) from Envigo (Harlan Laboratories) are used for this study. Food and water are available ad libitum. Animals are acclimated for one week prior to any experimental manipulation. The study is performed in accordance with AALAC accredited institutional guidelines.
Merestinib is formulated as a solution in 10% PEG 400 in 90% (20% Captisol in water) once weekly. Anti-PD-L1 antibody (178G7, LSN3370181) is formulated in PBS (phosphate buffered saline).
CT26 cells (from internal in vivo pharmacology cell culture group lot CT26.WT.3184878) are used for implantation. Approximately 1×10^6 cells in HBSS are implanted subcutaneously into the right hind flank of the animal under anesthesia.
Study S010516 has six groups: 1) vehicle control (10% PEG 400 in 90% [20% Captisol in water]) dosed orally once daily for 21 days and dosing initiated at Day 6 post-implant of CT26 cells; 2) single agent anti-PD-L1 antibody (178G7, LSN3370181) dosing via IP at 500 μg/animal once weekly for 3 weeks initiated at Day 6 post-implant of CT26 cells; 3) single agent merestinib at 12 mg/kg once daily orally for 21 days and initiated at Day 6 post-implant of CT26 cells; 4) concurrent combination of merestinib (12 mg/kg once daily for 21 days orally) and anti-PD-L1 antibody (500 μg/animal once weekly via IP for 3 weeks) and initiated at Day 6 post-implant of CT26 cells; 5) sequential combination of merestinib (12 mg/kg once daily for 21 days orally and initiated at Day 6 post-implant of CT26 cells) and anti-PD-L1 antibody (500 μg/animal once weekly via IP for 3 weeks and initiated at Day 13 post-implant of CT26 cells); 6) delayed concurrent combination of merestinib (12 mg/kg once daily for 21 days orally) and anti-PD-L1 antibody (500 μg/animal once weekly via IP for 3 weeks) and initiated at Day 10 post-implant of CT26 cells.
There are 15 animals per group. Five animals per group are taken down on Day 20 post-implant of CT26 cells for the harvesting of spleens and tumors for the interrogation of the effect of the combination of merestinib and anti-PD-L1 antibody combination on immune functions. Ten animals per group remain for the duration of the study unless, as pre-defined in the study protocol, the animal is to be sacrificed if the tumor volume exceeds 2500 mm^3 or is ulcerated. Tumor volumes and body weight are measured bi-weekly. Tumor volume is estimated by using the formula: v=l×w2×0.536 where l=larger of measured diameter and w=smaller of perpendicular diameter.
The last dose of drug is received on Day 20, Day 27, Day 27, Day 27 and Day 31, respectively, for group 2, group 3, group 4, group 5 and group 6. On Day 64, about 1 month to 1.5 months after completing drug-dosing, animals that are still alive and with tumor response classified as PR (partial responder) or CR (complete responder) are re-challenged with a new implantation of CT26 tumor cells (1×10^6 cells in HBSS) subcutaneously into the contralateral side of the hind flank (left side) of the animal under anesthesia. The definition of PR and CR is in the statistical method section below. Three naïve animals (study protocol S035116) are used as control and are implanted with the same batch of CT26 tumor cells (1×10^6 cells in HBSS) subcutaneously into the left hind flank of the animal under anesthesia. Tumor growth is monitored and measured in the animals. […]

[2] = test system: immune cells; experiment: Flow cytometry analysis of immune cells in spleens and tumors; format: in vivo, mouse; conditions: compared to concurrent combination or vehicle control
Procedure: Spleens and tumors are collected from a subset of animals on the indicated study day(s) and processed for FACS analysis by homogenizing tissues through a tissue strainer to prepare a single cell suspension in culture medium. Single cell suspensions are then stained with fluorescently-labeled antibodies to identify immune markers including: CD3, CD4, CD8, CD11b, CD19, CD45, FoxP3, PD-L1, F4/80 and a fixable viability dye. Cells are analyzed using a BD LSR II flow cytometer. Data are collected and analyzed using Flowjo (Tree Star, Inc.) to measure the percentage of total live lymphocytes (Live, CD45+) in each tissue. Immune cell subsets are then measured as a percentage of CD45 cells, or as a percentage of the immediate parent population.

[3] = animals of 10/group, tumor volume ≤25 mm^3

With Cc1ccc(C(=O)Nc2ccc(Oc3cc4cnn(C)c4cc3-c3cn[nH]c3)c(F)c2)c(=O)n1-c1ccc(F)cc1 [merestinib, N-(3-fluoro-4-(1-methyl-6-(1H-pyrazol-4-yl)-1H-indazol-5-yloxy)phenyl)-1-(4-fluorophenyl)-6-methyl-2-oxo-1,2-dihydropyridine-3-carboxamide] the “tumor growth after cessation of dosing” value ([1]; 12 mg/kg, after the 21 day dosing period, Days 33-40) was “grew exponentially”, the “% Response (% ΔT/C above baseline, % Regression below baseline)” value ([1]; Day 8) was −65.5% and the “Mean Tumor Volume” value ([1]; Day 8) was 64.7. For the same compound, the “% Response (% ΔT/C above baseline, % Regression below baseline)” value ([1]; Day 12) was −29.4%, the “Mean Tumor Volume” value ([1]; Day 12) was 132.5 and the “% Response (% ΔT/C above baseline, % Regression below baseline)” value ([1]; Day 15) was 14.6%. The “Mean Tumor Volume” value ([1]; Day 15) was 206.6, the “% Response (% ΔT/C above baseline, % Regression below baseline)” value ([1]; Day 19) was 53.7% and the “Mean Tumor Volume” value ([1]; Day 19) was 357.7. For the same compound, the “% Response (% ΔT/C above baseline, % Regression below baseline)” value ([1]; Day 22) was 35.6%, the “Mean Tumor Volume” value ([1]; Day 22) was 491.5 and the “% Response (% ΔT/C above baseline, % Regression below baseline)” value ([1]; Day 25) was 31.3%. For the same compound, the “Mean Tumor Volume” value ([1]; Day 25) was 717.0, the “% Response (% ΔT/C above baseline, % Regression below baseline)” value ([1]; Day 28) was 24.8% and the “Mean Tumor Volume” value ([1]; Day 28) was 845.3. The “% Response (% ΔT/C above baseline, % Regression below baseline)” value ([1]; Day 33) was 27.1%, the “Mean Tumor Volume mm^3” value ([1]; Day 33) was 1609.0 mm^3 and the “T/C %” value ([1]; Day 33) was 31.2%. The “anti-tumor effect as compared to vehicle control” value ([1]; Day 33 / end of dosing) was “significant anti-tumor effect”, the “Difference (Treatment 1 − Treatment 2), log scale tumor volume” value ([1]; Day 33, Treatment 1 = Vehicle control) was 0.529 and the “Mean Tumor Volume” value ([1]; Day 33) was 1608.2. The “Day 33 Treatment Responders GD (Growth Delay)” value ([1]; animals of 10/group) was 1, the “Day 33 Treatment Responders PD (Progressive Disease)” value ([1]; animals of 10/group) was 9 and the “Day 33 Treatment Responders PR (Partial Response)” value ([1]; animals of 10/group) was 0. For the same compound, the “Day 64 Treatment Responders GD (Growth Delay)” value ([1]; animals of 10/group) was 1, the “Day 64 Treatment Responders PD (Progressive Disease)” value ([1]; animals of 10/group) was 9 and the “Day 64 Treatment Responders PR (Partial Response)” value ([1]; animals of 10/group) was 0. For the same compound, the “Day 33 Treatment Responders CR (Complete and durable Regression)” value [1, 3] was 0, the “Day 64 Treatment Responders CR (Complete and durable Regression)” value [1, 3] was 0 and the “change in immune cells by flow cytometry” value [2] was “no significant change”.
